In one assay the target is T1, MAO-B (Rattus norvegicus, UniProt P19643).
T1 construct: en utilisant comme source d'enzyme une suspension mitochondriale du cerveau de rat; from tissue; host or cells: rat brain mitochondrial suspension
T1 sequence (P19643 1-520): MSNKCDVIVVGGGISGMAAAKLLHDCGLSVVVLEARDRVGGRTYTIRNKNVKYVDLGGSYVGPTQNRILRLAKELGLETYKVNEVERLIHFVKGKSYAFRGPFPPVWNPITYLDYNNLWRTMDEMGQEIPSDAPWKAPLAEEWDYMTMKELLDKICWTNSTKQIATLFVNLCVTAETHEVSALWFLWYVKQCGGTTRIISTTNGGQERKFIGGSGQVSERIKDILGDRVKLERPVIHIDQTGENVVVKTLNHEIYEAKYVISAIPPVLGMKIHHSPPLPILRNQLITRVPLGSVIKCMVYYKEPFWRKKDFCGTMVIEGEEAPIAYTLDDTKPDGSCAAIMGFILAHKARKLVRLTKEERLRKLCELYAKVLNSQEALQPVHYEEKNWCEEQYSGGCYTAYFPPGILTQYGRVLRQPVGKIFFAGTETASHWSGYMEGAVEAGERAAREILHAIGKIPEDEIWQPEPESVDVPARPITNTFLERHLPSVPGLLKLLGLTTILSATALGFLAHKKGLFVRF
Put plainly: In vitro MAO activity assay, rat brain mitochondrial suspension, phenethylamine (PEA) as substrate. It is filed as biochemical. The following applies: 20 min preincubation, reaction time 10 min. Here is the method: (§1) L'activité inhibitrice de la monoamine oxydase de ces composés a été mise en évidence par des mesures in vitro de la MAO.
(§2) Le dosage de l'activité de la MAO a été effectué en utilisant comme source d'enzyme une suspension mitochondriale du cerveau de rat. Le dosage standard consiste à préincuber l'enzyme pendant 20 minutes en absence, puis en présence des inhibiteurs. Les activités sont déterminées en utilisant la sérotonine (5 HT) et la phénéthylamine (PEA) comme substrats de la MAO-A et de la MAO-B, les temps de réaction étant de 40 minutes avec la 5 HT et de 10 minutes avec la PEA. Le mode opératoire mis en oeuvre est celui du protocole de P.C. Baker : Dev. Biol. 14, 267, 1966.
(§3) Les activités d'un certain nombre de composés selon l'invention vis-à-vis de la MAO-B et de la MAO-A sont données par leurs constantes d'inhibition Ki (MAO-B) et Ki(MAO-A) et sont rassemblées dans le tableau ci-après. TABLEAU

Another assay addresses T2, MAO-A (Rattus norvegicus, UniProt P21396).
T2 construct: en utilisant comme source d'enzyme une suspension mitochondriale du cerveau de rat; from tissue; host or cells: rat brain mitochondrial suspension
T2 sequence (P21396 1-526): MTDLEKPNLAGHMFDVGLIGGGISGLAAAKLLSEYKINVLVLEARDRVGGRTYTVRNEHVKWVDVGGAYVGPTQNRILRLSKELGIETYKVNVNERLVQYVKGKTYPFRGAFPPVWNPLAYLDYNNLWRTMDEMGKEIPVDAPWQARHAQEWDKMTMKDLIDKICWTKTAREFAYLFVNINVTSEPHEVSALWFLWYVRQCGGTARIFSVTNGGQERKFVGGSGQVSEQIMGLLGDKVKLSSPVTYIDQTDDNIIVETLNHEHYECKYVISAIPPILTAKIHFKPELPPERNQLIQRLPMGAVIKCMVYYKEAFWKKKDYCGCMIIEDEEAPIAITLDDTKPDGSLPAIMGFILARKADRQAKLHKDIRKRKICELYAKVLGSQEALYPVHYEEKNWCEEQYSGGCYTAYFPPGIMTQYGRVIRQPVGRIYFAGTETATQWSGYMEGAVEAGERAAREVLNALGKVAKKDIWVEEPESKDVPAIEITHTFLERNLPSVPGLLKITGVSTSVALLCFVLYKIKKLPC
Nature of the assay: In vitro MAO activity assay, rat brain mitochondrial suspension, serotonin (5 HT) as substrate. It is filed as biochemical. Particulars: 20 min preincubation, substrate 5 HT, reaction time 40 min. Here is the method: as §1, §2, §3

pKi: −log10 of the molar value.

Turning to `COCCn1nnc(-c2ccc(OCc3ccccc3)cc2)n1` [MD 230300, (benzyloxy-4 phényl)-5 méthoxyéthyl-2 2H tétrazole], at MAO-B, the pKi is 7.81. On MAO-A, the “Ki(MAO-A)” value is “inactif”.

For `COCCn1nc(-c2ccc(OCc3ccc(Cl)cc3)cc2)oc1=O` [MD 230306, [(chloro-4 benzyloxy)-4 phényl]-5 méthoxyéthyl-3 3H oxadiazole-1,3,4 one-2], the pKi at MAO-B is 8.30.

In turn, `COCCn1nnc(-c2ccc(OCc3ccc(Cl)cc3)cc2)n1` [MD 230305, [(chloro-4 benzyloxy)-4 phényl]-5 méthoxyéthyl-2 2H-tétrazole] showed a pKi at MAO-B of 6.74.

Molecule `COCCn1nnc(-c2ccc(OCc3cccc(Cl)c3)cc2)n1` [MD 230324, [(chloro-3 benzyloxy)-4 phényl]-5 méthoxyéthyl-2 2H tétrazole] gave a pKi on MAO-B of 7.46.
